The values below come from ChEMBL document CHEMBL3853267 (Medchemcomm, 2016).

The species entered for assay [1] is Rattus norvegicus. As to the kind of experiment: Selectivity ratio of EC50 for DAT in rat synaptosomes to EC50 for SERT in rat synaptosomes. Format: subcellular.
Assay [2] in a line: Activity at NET in rat synaptosomes obtained from whole brain minus striatum and cerebellum assessed as release of [3H]MPP+ by liquid scintillation counting method. Format: subcellular.
The species named for assay [3] is Rattus norvegicus. Briefly: Selectivity ratio of EC50 for NET in rat synaptosomes to EC50 for SERT in rat synaptosomes. Format: subcellular.
Assay [4] has as its target Sodium-dependent serotonin transporter (Rattus norvegicus, UniProt P31652). Briefly: Activity at SERT in rat synaptosomes obtained from whole brain minus striatum and cerebellum assessed as release of [3H]5-HT by liquid scintillation counting method. Format: subcellular.
The species named for assay [5] is Rattus norvegicus. As to the kind of experiment: Selectivity ratio of EC50 for DAT in rat synaptosomes to EC50 for NET in rat synaptosomes. Format: subcellular.
The target in assay [6] is T1, 5-hydroxytryptamine receptor 2A (Homo sapiens, UniProt P28223). As to the kind of experiment: Agonist activity at human 5-HT2A receptor expressed in HEK293 cells assessed as induction of calcium mobilization incubated for 15 mins by calcium 5 dye-based fluorescence assay. Format: cell-based. For orientation: Calcium assays in cells follow changes in intracellular calcium, usually with a dye or a luminescent sensor.
T1 sequence (P28223 whole entry): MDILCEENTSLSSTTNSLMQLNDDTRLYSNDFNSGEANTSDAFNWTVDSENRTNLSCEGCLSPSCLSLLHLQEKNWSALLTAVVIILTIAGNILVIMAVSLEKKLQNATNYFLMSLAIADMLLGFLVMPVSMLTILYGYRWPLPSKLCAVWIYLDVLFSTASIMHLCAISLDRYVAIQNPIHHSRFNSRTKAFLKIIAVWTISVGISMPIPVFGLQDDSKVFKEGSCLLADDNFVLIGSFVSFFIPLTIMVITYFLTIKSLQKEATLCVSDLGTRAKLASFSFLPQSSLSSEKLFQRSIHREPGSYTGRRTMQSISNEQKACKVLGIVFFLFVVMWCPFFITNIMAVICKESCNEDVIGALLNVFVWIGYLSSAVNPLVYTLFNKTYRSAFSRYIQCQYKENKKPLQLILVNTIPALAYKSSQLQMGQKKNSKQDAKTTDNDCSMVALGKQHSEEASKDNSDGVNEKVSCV

For assay [7], the species on record is Rattus norvegicus. As to the kind of experiment: Selectivity ratio of EC50 for NET in rat synaptosomes to EC50 for DAT in rat synaptosomes. Format: subcellular.
The target of assay [8] is 5-hydroxytryptamine receptor 2B (Homo sapiens, UniProt P41595). Briefly: Agonist activity at human 5-HT2B receptor expressed in HEK293 cells by [3H]-inositol phosphate accumulation assay. Format: cell-based.
Sequence of 5-hydroxytryptamine receptor 2B (P41595 whole entry): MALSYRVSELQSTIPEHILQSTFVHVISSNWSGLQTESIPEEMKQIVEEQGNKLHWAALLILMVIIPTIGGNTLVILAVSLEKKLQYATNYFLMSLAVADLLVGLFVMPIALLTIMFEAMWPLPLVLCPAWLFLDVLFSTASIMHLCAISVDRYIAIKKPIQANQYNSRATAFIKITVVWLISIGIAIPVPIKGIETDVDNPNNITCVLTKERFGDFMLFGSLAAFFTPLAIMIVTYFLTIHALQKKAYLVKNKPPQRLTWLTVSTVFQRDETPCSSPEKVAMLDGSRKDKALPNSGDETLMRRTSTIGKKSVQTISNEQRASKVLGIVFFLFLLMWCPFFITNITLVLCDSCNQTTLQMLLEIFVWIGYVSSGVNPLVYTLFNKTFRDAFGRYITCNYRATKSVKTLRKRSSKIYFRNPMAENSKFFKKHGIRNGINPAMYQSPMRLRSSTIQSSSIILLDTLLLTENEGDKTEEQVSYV
In assay [9] the target is T2, 5-hydroxytryptamine receptor 2C (Homo sapiens, UniProt P28335).
T2 sequence (P28335 whole entry): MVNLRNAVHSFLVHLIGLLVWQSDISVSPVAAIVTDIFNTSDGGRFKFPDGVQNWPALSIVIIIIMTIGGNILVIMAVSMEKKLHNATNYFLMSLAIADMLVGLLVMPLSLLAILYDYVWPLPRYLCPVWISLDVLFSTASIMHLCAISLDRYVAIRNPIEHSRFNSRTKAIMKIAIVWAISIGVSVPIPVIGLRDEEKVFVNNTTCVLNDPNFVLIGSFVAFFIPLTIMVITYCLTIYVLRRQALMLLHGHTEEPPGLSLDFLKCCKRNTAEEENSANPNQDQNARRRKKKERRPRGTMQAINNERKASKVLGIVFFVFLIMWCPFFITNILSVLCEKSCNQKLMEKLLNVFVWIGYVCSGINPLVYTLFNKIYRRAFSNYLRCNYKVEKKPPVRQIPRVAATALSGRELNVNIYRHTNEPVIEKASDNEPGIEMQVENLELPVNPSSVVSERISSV
Briefly: Agonist activity at human 5-HT2C receptor expressed in HEK293 cells by [3H]-inositol phosphate accumulation assay. Format: functional, cell-based.

Assay [10] addresses T3, 5-hydroxytryptamine receptor 2C (Homo sapiens) (UniProt P28335).
T3 sequence (whole entry): T2 sequence (P28335 whole entry)
Briefly: Agonist activity at human 5-HT2C receptor expressed in HEK293 cells by [3H]-inositol phosphate accumulation assay relative to 5-HT. Format: functional, cell-based.

Assay [11] has as its target T1, 5-hydroxytryptamine receptor 2A. Briefly: Agonist activity at human 5-HT2A receptor expressed in HEK293 cells by [3H]-inositol phosphate accumulation assay. Format: cell-based.
Assay [12] addresses T2, 5-hydroxytryptamine receptor 2C. Briefly: Agonist activity at human 5-HT2C receptor expressed in HEK293 cells assessed as induction of calcium mobilization incubated for 15 mins by calcium 5 dye-based fluorescence assay. Format: functional, cell-based.

Structures are written as SMILES.

Sequence of Sodium-dependent serotonin transporter (P31652 whole entry): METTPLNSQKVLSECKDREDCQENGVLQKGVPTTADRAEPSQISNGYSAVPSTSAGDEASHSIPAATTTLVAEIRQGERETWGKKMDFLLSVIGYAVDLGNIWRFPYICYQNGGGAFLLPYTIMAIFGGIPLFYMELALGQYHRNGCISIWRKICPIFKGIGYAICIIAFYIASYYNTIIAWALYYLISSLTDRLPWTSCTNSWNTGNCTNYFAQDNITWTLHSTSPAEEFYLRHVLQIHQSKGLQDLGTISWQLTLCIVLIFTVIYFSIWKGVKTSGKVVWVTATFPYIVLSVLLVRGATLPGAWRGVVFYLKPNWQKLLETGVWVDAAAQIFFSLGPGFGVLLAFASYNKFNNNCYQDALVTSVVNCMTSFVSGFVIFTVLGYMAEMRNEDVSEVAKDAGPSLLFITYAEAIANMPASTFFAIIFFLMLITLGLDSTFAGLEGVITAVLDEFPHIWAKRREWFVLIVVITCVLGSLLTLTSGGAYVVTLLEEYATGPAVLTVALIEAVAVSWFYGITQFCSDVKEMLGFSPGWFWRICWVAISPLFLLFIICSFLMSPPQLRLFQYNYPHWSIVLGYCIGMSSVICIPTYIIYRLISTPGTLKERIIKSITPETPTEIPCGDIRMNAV

One may read the EC50 as the concentration giving half of the maximal effect. In the case of `C[C@H](N)C/C=C/c1ccccc1`, the figures for the Ratio EC50 in the assay filed under Rattus norvegicus [1] and in the assay filed under Rattus norvegicus [3] were 5 and 3.5, respectively. Moreover, in assay [2], the 50% effective concentration (EC50) came to 0.138 µM.
For `CC(N)/C=C/c1ccccc1` (stereo not drawn), the EC50 in [4] is > 10 µM; in assay [2] it was 0.308 µM. Further, the Ratio EC50 in the assay filed under Rattus norvegicus [5] was determined as 2.2.
With `C[C@@H](N)CC#Cc1ccccc1`, the Ratio EC50 in the assay filed under Rattus norvegicus [1] was found to be 2.3. The EC50 in assay [6] is > 10 µM; in assay [2], 0.496 µM.
Take `CC(N)C/C=C/c1ccccc1` (racemic): in the assay filed under Rattus norvegicus [1], the Ratio EC50 stood at 5. Also, the EC50 in [2] came to 0.239 µM.
As to `C[C@@H](N)C/C=C/c1ccccc1`, in the assay listed under Rattus norvegicus [1], the Ratio EC50 was determined as 5. Also, the figures for the EC50 in assay [6] and in [2] were > 10 µM and 0.279 µM, respectively.
On to `CC(N)CC#Cc1ccccc1` (racemic), for which the Ratio EC50 was found to be 2.6 in the assay listed under Rattus norvegicus [1] and 3 in the assay filed under Rattus norvegicus [7]. In assay [2], the EC50 came to 2.98 µM.
Usually Emax stands for the size of the effect at its maximum, as opposed to the concentration needed. In the case of `CC(N)Cc1ccc2ccccc2c1` (stereo not drawn), the EC50 in assay [8] is 0.04 µM; in assay [9], 0.0023 µM; in [11], 0.466 µM. This molecule returned an Emax in [10] of 20%.
For `C[C@@H](N)C/C=C\c1ccccc1`, the values for the Ratio EC50 in the assay filed under Rattus norvegicus [1] and in the assay filed under Rattus norvegicus [5] were 1.2 and 6.7, respectively. Besides, the EC50 in assay [2] is 0.211 µM.
Take `C[C@H](N)CC#Cc1ccccc1`: in assay [2], the EC50 was found to be 0.784 µM.
`CC(N)/C=C\c1ccccc1` (stereo not drawn): the EC50 is > 10 µM in [4] and 0.301 µM in assay [2]. Moreover, the Ratio EC50 in the assay listed under Rattus norvegicus [5] was 3.7.
Take `CC(N)C/C=C\c1ccccc1` (racemic): in the assay filed under Rattus norvegicus [1], the Ratio EC50 worked out at 1.4. Moreover, the EC50 in [2] worked out at 0.621 µM.
For `C[C@H](N)C/C=C\c1ccccc1`, the EC50 in assay [12] was > 10 µM; in assay [4], 0.663 µM; in [2], 0.17 µM.
